# Test results reported in PubChem BioAssay (NCI).
#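 Values below derive from 48-hour exposures of cells grown in 96-well plates, with endpoints linearly interpolated between the two concentrations bracketing the appropriate inhibition level. TGI marks complete inhibition of growth.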
# Legend:
# Assay in all cases: inhibition of tumour cell growth, NCI panel, 48 h
# [1] = test system: 786-0 renal
# [2] = test system: A498 renal
# [3] = test system: A549 NSCLC
# [4] = test system: ACHN renal
# [5] = test system: BT-549 breast
# [6] = test system: CAKI-1 renal
# [7] = test system: CCRF-CEM leukemia
# [8] = test system: COLO 205 colon
# [9] = test system: DU-145 prostate
# [10] = test system: EKVX NSCLC
# [11] = test system: HCC-2998 colon
# [12] = test system: HCT-116 colon
# [13] = test system: HCT-15 colon
# [14] = test system: HL-60(TB) leukemia
# [15] = test system: HOP-62 NSCLC
# [16] = test system: HOP-92 NSCLC
# [17] = test system: HS 578T breast
# [18] = test system: HT29 colon
# [19] = test system: IGROV1 ovarian
# [20] = test system: K-562 leukemia
# [21] = test system: KM12 colon
# [22] = test system: LOX IMVI melanoma
# [23] = test system: M14 melanoma
# [24] = test system: MALME-3M melanoma
# [25] = test system: MCF7 breast
# [26] = test system: MDA-MB-231 breast
# [27] = test system: MDA-MB-435
# [28] = test system: MDA-N
# [29] = test system: MOLT-4 leukemia
# [30] = test system: NCI-H226 lung
# [31] = test system: NCI-H23 lung
# [32] = test system: NCI-H460 lung
# [33] = test system: NCI-H522 lung
# [34] = test system: NCI/ADR-RES ovarian
# [35] = test system: OVCAR-3 ovarian
# [36] = test system: OVCAR-4 ovarian
# [37] = test system: OVCAR-5 ovarian
# [38] = test system: OVCAR-8 ovarian
# [39] = test system: PC-3 prostate
# [40] = test system: SF-268 CNS
# [41] = test system: SF-295 CNS
# [42] = test system: SF-539 CNS
# [43] = test system: SK-MEL-2 melanoma
# [44] = test system: SK-MEL-28 melanoma
# [45] = test system: SK-MEL-5 melanoma
# [46] = test system: SK-OV-3 ovarian
# [47] = test system: SN12C renal
# [48] = test system: SNB-19 CNS
# [49] = test system: SNB-75 CNS
# [50] = test system: SR leukemia
# [51] = test system: SW-620 colon
# [52] = test system: T-47D breast
# [53] = test system: TK-10 renal
# [54] = test system: U251 CNS
# [55] = test system: UACC-257 melanoma
# [56] = test system: UACC-62 melanoma
# [57] = test system: UO-31 renal
# [58] = test system: RXF 393 renal
structure (smiles),measurement,setting,value
Cc1cc(=O)[nH]c2cc(NC(=O)C(CCCN=C(N)N)NC(=O)OCc3ccccc3)ccc12 (stereo unspecified),TGI,[1],> 100 µM
same,TGI,[2],> 100 µM
same,TGI,[3],> 100 µM
same,TGI,[4],> 100 µM
same,TGI,[5],> 100 µM
same,TGI,[6],> 100 µM
same,TGI,[7],> 100 µM
same,TGI,[8],> 100 µM
same,TGI,[9],> 100 µM
same,TGI,[10],> 100 µM
same,TGI,[11],> 100 µM
same,TGI,[12],> 100 µM
same,TGI,[13],> 100 µM
same,TGI,[14],> 100 µM
same,TGI,[15],> 100 µM
same,TGI,[16],> 100 µM
same,TGI,[17],> 100 µM
same,TGI,[18],> 100 µM
same,TGI,[19],> 100 µM
same,TGI,[20],> 100 µM
same,TGI,[21],> 100 µM
same,TGI,[22],> 100 µM
same,TGI,[23],> 100 µM
same,TGI,[24],> 100 µM
same,TGI,[25],> 100 µM
same,TGI,[26],> 100 µM
same,TGI,[27],> 100 µM
same,TGI,[28],> 100 µM
same,TGI,[29],> 100 µM
same,TGI,[30],> 100 µM
same,TGI,[31],> 100 µM
same,TGI,[32],> 100 µM
same,TGI,[33],> 100 µM
same,TGI,[34],> 100 µM
same,TGI,[35],> 100 µM
same,TGI,[36],> 100 µM
same,TGI,[37],> 100 µM
same,TGI,[38],> 100 µM
same,TGI,[39],> 100 µM
same,TGI,[40],> 100 µM
same,TGI,[41],> 100 µM
same,TGI,[42],> 100 µM
same,TGI,[43],> 100 µM
same,TGI,[44],> 100 µM
same,TGI,[45],> 100 µM
same,TGI,[46],25.6 µM
same,TGI,[47],> 100 µM
same,TGI,[48],> 100 µM
same,TGI,[49],> 100 µM
same,TGI,[50],> 100 µM
same,TGI,[51],> 100 µM
same,TGI,[52],> 100 µM
same,TGI,[53],> 100 µM
same,TGI,[54],> 100 µM
same,TGI,[55],> 100 µM
same,TGI,[56],> 100 µM
same,TGI,[57],> 100 µM
OC(c1cc2ccccc2[nH]1)C1(c2cccnc2)SCCCS1 (stereo unspecified),TGI,[1],> 100 µM
same,TGI,[2],> 100 µM
same,TGI,[3],> 100 µM
same,TGI,[4],> 100 µM
same,TGI,[5],> 100 µM
same,TGI,[6],> 100 µM
same,TGI,[8],> 100 µM
same,TGI,[9],> 100 µM
same,TGI,[10],> 100 µM
same,TGI,[12],> 100 µM
same,TGI,[13],> 100 µM
same,TGI,[14],> 100 µM
same,TGI,[15],> 100 µM
same,TGI,[16],> 100 µM
same,TGI,[17],> 100 µM
same,TGI,[18],> 100 µM
same,TGI,[19],> 100 µM
same,TGI,[20],> 100 µM
same,TGI,[21],82 µM
same,TGI,[22],> 100 µM
same,TGI,[23],> 100 µM
same,TGI,[24],> 100 µM
same,TGI,[25],> 100 µM
same,TGI,[26],> 100 µM
same,TGI,[27],> 100 µM
same,TGI,[28],> 100 µM
same,TGI,[29],> 100 µM
same,TGI,[30],> 100 µM
same,TGI,[31],> 100 µM
same,TGI,[32],> 100 µM
same,TGI,[33],> 100 µM
same,TGI,[34],> 100 µM
same,TGI,[36],> 100 µM
same,TGI,[37],> 100 µM
same,TGI,[38],> 100 µM
same,TGI,[39],> 100 µM
same,TGI,[58],> 100 µM
same,TGI,[40],> 100 µM
same,TGI,[41],> 100 µM
same,TGI,[43],> 100 µM
same,TGI,[44],> 100 µM
same,TGI,[45],> 100 µM
same,TGI,[46],> 100 µM
same,TGI,[47],> 100 µM
same,TGI,[48],> 100 µM
same,TGI,[49],> 100 µM
same,TGI,[50],> 100 µM
same,TGI,[51],> 100 µM
same,TGI,[52],> 100 µM
same,TGI,[53],> 100 µM
same,TGI,[54],> 100 µM
same,TGI,[55],> 100 µM
same,TGI,[56],> 100 µM
same,TGI,[57],> 100 µM
